Experimental data as given in US20210198277A1, “AMINE-SUBSTITUTED ARYL OR HETEROARYL COMPOUNDS” (Epizyme, Inc., priority 2016, published 2021).

biological target: T1, EHMT2 (Homo sapiens, UniProt Q96KQ7); assay: MDA-MB-231 H3K9me2 in-cell Western assay (EHMT2 ICW); assay type: cell-based; settings: Table III; MDA-MB-231 H3K9me2 in-cell Western; read-out: EHMT2 ICW (IC50 μM)
T1 construct: host or cells: MDA-MB-231
T1 sequence (Q96KQ7 1-1210): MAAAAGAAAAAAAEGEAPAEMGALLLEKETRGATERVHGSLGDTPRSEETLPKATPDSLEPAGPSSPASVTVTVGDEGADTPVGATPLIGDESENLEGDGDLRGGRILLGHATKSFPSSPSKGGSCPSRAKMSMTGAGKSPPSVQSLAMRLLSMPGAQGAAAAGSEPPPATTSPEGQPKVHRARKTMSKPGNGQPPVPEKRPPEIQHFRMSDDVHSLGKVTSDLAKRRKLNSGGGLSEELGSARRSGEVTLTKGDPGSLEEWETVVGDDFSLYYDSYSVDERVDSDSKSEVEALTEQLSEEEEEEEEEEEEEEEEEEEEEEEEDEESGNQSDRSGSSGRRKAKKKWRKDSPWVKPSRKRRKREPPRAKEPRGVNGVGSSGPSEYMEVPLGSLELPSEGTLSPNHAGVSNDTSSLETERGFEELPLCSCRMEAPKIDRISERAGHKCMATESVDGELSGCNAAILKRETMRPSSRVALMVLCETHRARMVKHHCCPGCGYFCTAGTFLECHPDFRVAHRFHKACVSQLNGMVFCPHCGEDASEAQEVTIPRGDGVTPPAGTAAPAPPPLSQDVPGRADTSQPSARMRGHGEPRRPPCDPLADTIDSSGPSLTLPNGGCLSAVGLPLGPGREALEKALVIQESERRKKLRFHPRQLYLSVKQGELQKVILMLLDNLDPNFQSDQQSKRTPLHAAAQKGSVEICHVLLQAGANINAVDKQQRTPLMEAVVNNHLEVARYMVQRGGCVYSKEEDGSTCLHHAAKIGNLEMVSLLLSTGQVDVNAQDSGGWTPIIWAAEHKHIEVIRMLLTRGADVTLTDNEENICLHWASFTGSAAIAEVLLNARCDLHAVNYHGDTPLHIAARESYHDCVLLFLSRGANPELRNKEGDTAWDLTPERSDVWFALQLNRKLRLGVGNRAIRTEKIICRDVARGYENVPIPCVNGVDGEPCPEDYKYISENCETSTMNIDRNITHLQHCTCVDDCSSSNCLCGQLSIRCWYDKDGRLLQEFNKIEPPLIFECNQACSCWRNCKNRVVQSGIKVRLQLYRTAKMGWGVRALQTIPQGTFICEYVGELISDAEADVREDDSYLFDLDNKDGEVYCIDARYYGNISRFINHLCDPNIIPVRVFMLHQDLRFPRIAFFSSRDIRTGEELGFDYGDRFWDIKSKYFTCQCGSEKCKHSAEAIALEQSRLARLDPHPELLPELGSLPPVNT
In short: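 MDA-MB-231 cells (3,000/well) were exposed to compound for 30 min at room temperature and then 48 h at 37 °C, fixed with paraformaldehyde, and stained with anti-H3K9me2 (800 nm) plus DRAQ5 (700 nm). Per-well channel ratios gave percent inhibition, and IC50 came from a four-parameter fit of triplicate wells.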

| SMILES | IC50 |
| --- | --- |
| CNc1cc(Nc2cccc(COCCN3CCCC3)n2)ccn1 [Compound 268, N^2-methyl-N^4-(6-((2-(pyrrolidin-1-yl)ethoxy)methyl)pyridin-2-yl)pyridine-2,4-diamine] | > 10 µM |
| CNc1ccnc(Nc2ccc(OC)c(OCCCN3CCC(C(F)(F)F)C3)c2)n1 (stereo not drawn) [Compound 285, N^2-(4-methoxy-3-(3-(3-(trifluoromethyl)pyrrolidin-1-yl)propoxy)phenyl)-N^4-methylpyrimidine-2,4-diamine] | > 10 µM |
| CNc1ccnc(Nc2ccc(OC)c(OCCC3CCCN3C)c2)n1 (stereo not drawn) [Compound 288, N^2-(4-methoxy-3-(2-(1-methylpyrrolidin-2-yl)ethoxy)phenyl)-N^4-methylpyrimidine-2,4-diamine] | 1 to 10 µM |
| CNc1ccnc(Nc2cccc(COCCN3CCCC3)n2)c1 [Compound 267, N^4-methyl-N^2-(6-((2-(pyrrolidin-1-yl)ethoxy)methyl)pyridin-2-yl)pyridine-2,4-diamine] | > 10 µM |
| CNc1cc(C)nc(Nc2ccc(OC)c(O[C@H]3C[C@@H](N(C)C)C3)c2)n1 (single isomer, unassigned) [Compound 317, N^2-(3-((1s,3s)-3-(dimethylamino)cyclobutoxy)-4-methoxyphenyl)-N^4,6-dimethylpyrimidine-2,4-diamine] | 1 to 10 µM |
| CNc1ccnc(Nc2ccc(OC)c(OCCCN3CC4CC4C3)c2)n1 (stereo not drawn) [Compound 298, N^2-(3-(3-(3-azabicyclo[3.1.0]hexan-3-yl)propoxy)-4-methoxyphenyl)-N^4-methylpyrimidine-2,4-diamine] | 0.1 to 1 µM |
| CNc1ccnc(Nc2cccc(OCC(F)(F)CN3CCCC3)c2)n1 [Compound 277, N^2-(3-(2,2-difluoro-3-(pyrrolidin-1-yl)propoxy)phenyl)-N^4-methylpyrimidine-2,4-diamine] | > 10 µM |
| CNc1cc(Nc2ccc(OC)c(OCCCN3CCCC3)c2)cc(C(F)(F)F)n1 [Compound 273] | > 10 µM |
| CNc1cc(C)nc(Nc2ccc(OC)c(O[C@H]3C[C@@H](CN(C)C)C3)c2)n1 [Compound 318, N^2-(3-((1s,3s)-3-((dimethylamino)methyl)cyclobutoxy)-4-methoxyphenyl)-N^4,6-dimethylpyrimidine-2,4-diamine] | > 10 µM |
| CNc1ccnc(Nc2ccc(OC)c(OCCCN3CCC(S(C)(=O)=O)C3)c2)n1 (stereo not drawn) [Compound 282] | > 10 µM |
| CNc1ccnc(Nc2cccc(C(C)OCCN3CCCC3)c2)n1 (stereo not drawn) [Compound 279, N^4-methyl-N^2-(3-(1-(2-(pyrrolidin-1-yl)ethoxy)ethyl)phenyl) pyrimidine-2,4-diamine] | > 10 µM |
| CCNC(=O)c1cc(Nc2nccc(NC)n2)ccn1 [Compound 291, N-ethyl-4-((4-(methylamino)pyrimidin-2-yl)amino)picolinamide] | > 10 µM |
| CNc1ccnc(Nc2ccc(OC)c(OCCCN3CCCC3C)c2)n1 (stereo not drawn) [Compound 290, N^2-(4-methoxy-3-(3-(2-methylpyrrolidin-1-yl)propoxy)phenyl)-N^4-methylpyrimidine-2,4-diamine] | 1 to 10 µM |
| CNc1ccnc(Nc2ccc(OC)c(OCC3CCCN3C)c2)n1 (stereo not drawn) [Compound 289, N^2-(4-methoxy-3-((1-methylpyrrolidin-2-yl)methoxy)phenyl)-N^4-methylpyrimidine-2,4-diamine] | 0.1 to 1 µM |
| CNc1ccnc(Nc2ccc(OC)c(OC[C@@H](O)CN3CCCC3)c2)n1 [Compound 300, (S)-1-(2-methoxy-5-((4-(methylamino)pyrimidin-2-yl)amino)phenoxy)-3-(pyrrolidin-1-yl)propan-2-ol] | 0.1 to 1 µM |
| CNc1cc(C)nc(Nc2cc(OCCCN3CCCC3)c(OC)cc2F)n1 [Compound 302, N^2-(2-fluoro-4-methoxy-5-(3-(pyrrolidin-1-yl)propoxy)phenyl)-N^4,6-dimethylpyrimidine-2,4-diamine] | > 10 µM |
| CNc1nc(C2CCN(C)CC2)c2cc(OC)c(OCCCN3CCCC3)cc2n1 [Compound 270] | 0.1 to 1 µM |

Now from value to molecule:

| IC50 | SMILES |
| --- | --- |
| 1 to 10 µM | CNc1cc(C)nc(Nc2ccc(OC)c(OCC3CCN(C)CC3)c2)n1 [Compound 435, N^2-(4-methoxy-3-((1-methylpiperidin-4-yl)methoxy)phenyl)-N^4,6-dimethylpyrimidine-2,4-diamine] |
| > 10 µM | COc1cnc(Nc2nc(C)cc3[nH]ccc23)cc1OCCCN1CCCC1 [Compound 310] |
| > 10 µM | CNc1ccnc(Nc2ccc(OC)c(OCc3noc(C4CC4)n3)c2)n1 [Compound 433, N^2-(3-((5-cyclopropyl-1,2,4-oxadiazol-3-yl)methoxy)-4-methoxyphenyl)-N^4-methylpyrimidine-2,4-diamine] |
| 0.1 to 1 µM | CNc1cc(C)nc(Nc2ccc(OC)c(OCC3CCN(C4CCC4)C3)c2)n1 (stereo not drawn) [Compound 446, N^2-(3-((1-cyclobutylpyrrolidin-3-yl)methoxy)-4-methoxyphenyl)-N^4,6-dimethylpyrimidine-2,4-diamine] |
| 1 to 10 µM | CCc1nc(Nc2ccc(OC)c(OCCCN3CCCC3)c2)nc(NC)c1F [Compound 319, 6-ethyl-5-fluoro-N^2-(4-methoxy-3-(3-(pyrrolidin-1-yl)propoxy)phenyl)-N^4-methylpyrimidine-2,4-diamine] |
| > 10 µM | CNc1ccnc(Nc2ccc(OC)c(OCc3cc(C4CC4)on3)c2)n1 [Compound 426, N^2-(3-((5-cyclopropylisoxazol-3-yl)methoxy)-4-methoxyphenyl)-N^4-methylpyrimidine-2,4-diamine] |
| 1 to 10 µM | CNc1cc(C)nc(Nc2ccc(OC)c(OCC3CNC3)c2)n1 [Compound 437, N^2-(3-(azetidin-3-ylmethoxy)-4-methoxyphenyl)-N^4,6-dimethylpyrimidine-2,4-diamine] |
| > 10 µM | CNc1cc(C)nc(Nc2ccc(OC)c(OCCOC)c2)n1 [Compound 311, N^2-(4-methoxy-3-(2-methoxyethoxy)phenyl)-N^4,6-dimethylpyrimidine-2,4-diamine] |
| 1 to 10 µM | CNc1ccnc(Nc2ccc(OC)c(OCCCN(C)CC3CC3)c2)n1 [Compound 424, N^2-(3-(3-((cyclopropylmethyl)(methyl)amino)propoxy)-4-methoxyphenyl)-N^4-methylpyrimidine-2,4-diamine] |
| > 10 µM | CNc1cc(C)nc(Nc2ccc(OC)c(OC3CCN(CC4CC4)CC3)c2)n1 [Compound 443] |
| 1 to 10 µM | CNc1cc(C)nc(Nc2ccc(OC)c(OC[C@H]3C[C@@H](N(C)C)C3)c2)n1 [Compound 316] |
| > 10 µM | COc1cnc(Nc2cnc3ccccn23)cc1OCCCN1CCCC1 [Compound 321, N-(5-methoxy-4-(3-(pyrrolidin-1-yl)propoxy)pyridin-2-yl)imidazo[1,2-a]pyridin-3-amine] |
| 1 to 10 µM | COc1ccc(Nc2nc(C)cc(NCC3CCOCC3)n2)cc1OCC1CCN(C)C1 (stereo not drawn) [Compound 451, N^2-(4-methoxy-3-((1-methylpyrrolidin-3-yl)methoxy)phenyl)-6-methyl-N^4-((tetrahydro-2H-pyran-4-yl)methyl)pyrimidine-2,4-diamine] |
| 0.1 to 1 µM | COc1cnc(Nc2nccc3[nH]ccc23)cc1OCCCN1CCCC1 [Compound 304] |
| 1 to 10 µM | CNc1cc(C)nc(Nc2ccc(C3CC3)c(OCCCN3CCCC3)c2)n1 [Compound 313, N^2-(4-cyclopropyl-3-(3-(pyrrolidin-1-yl)propoxy)phenyl)-N^4,6-dimethylpyrimidine-2,4-diamine] |
| > 10 µM | CNc1ccnc(Nc2ccc(OC)c(OC[C@@H]3CN(C)C[C@H]3C)c2)n1 (single isomer, unassigned) [Compound 438] |
| 1 to 10 µM | CNc1ccnc(Nc2ccc(OC)c(OCCCN3CCC3C)c2)n1 (stereo not drawn) [Compound 429, N^2-(4-methoxy-3-(3-(2-methylazetidin-1-yl)propoxy)phenyl)-N^4-methylpyrimidine-2,4-diamine] |
| > 10 µM | CNc1cc(C)nc(Nc2ccc(OC)c(OCCCOC)c2)n1 [Compound 312, N^2-(4-methoxy-3-(3-methoxypropoxy)phenyl)-N^4,6-dimethylpyrimidine-2,4-diamine] |
| 1 to 10 µM | CNc1cc(C)nc(Nc2cc(OCCCN3CCCC3)c(OC)cn2)n1 [Compound 303, N^2-(5-methoxy-4-(3-(pyrrolidin-1-yl)propoxy)pyridin-2-yl)-N^4,6-dimethylpyrimidine-2,4-diamine] |
